Assay results taken from patent US5436271A, “N^6 -(hydrazinoiminomethyl)lysine and method of inhibiting nitric oxide formation in body” (Cornell Research Foundation, Inc., priority 1993, dated 1995).
pIC50: −log10 of the molar value. Read-outs that look alike come from different tables or passages of the source.

Legend:
[1] = target: T1, constitutive isoform of nitric oxide synthase (Rattus norvegicus, UniProt Q62600); test: Inhibition of acetylcholine relaxation of phenylephrine-contracted rat aortic rings (Example VI)
T1 construct: from tissue; host or cells: isolated rat aortic rings (2-3 mm)
T1 sequence (Q62600 2-1202 limits assumed): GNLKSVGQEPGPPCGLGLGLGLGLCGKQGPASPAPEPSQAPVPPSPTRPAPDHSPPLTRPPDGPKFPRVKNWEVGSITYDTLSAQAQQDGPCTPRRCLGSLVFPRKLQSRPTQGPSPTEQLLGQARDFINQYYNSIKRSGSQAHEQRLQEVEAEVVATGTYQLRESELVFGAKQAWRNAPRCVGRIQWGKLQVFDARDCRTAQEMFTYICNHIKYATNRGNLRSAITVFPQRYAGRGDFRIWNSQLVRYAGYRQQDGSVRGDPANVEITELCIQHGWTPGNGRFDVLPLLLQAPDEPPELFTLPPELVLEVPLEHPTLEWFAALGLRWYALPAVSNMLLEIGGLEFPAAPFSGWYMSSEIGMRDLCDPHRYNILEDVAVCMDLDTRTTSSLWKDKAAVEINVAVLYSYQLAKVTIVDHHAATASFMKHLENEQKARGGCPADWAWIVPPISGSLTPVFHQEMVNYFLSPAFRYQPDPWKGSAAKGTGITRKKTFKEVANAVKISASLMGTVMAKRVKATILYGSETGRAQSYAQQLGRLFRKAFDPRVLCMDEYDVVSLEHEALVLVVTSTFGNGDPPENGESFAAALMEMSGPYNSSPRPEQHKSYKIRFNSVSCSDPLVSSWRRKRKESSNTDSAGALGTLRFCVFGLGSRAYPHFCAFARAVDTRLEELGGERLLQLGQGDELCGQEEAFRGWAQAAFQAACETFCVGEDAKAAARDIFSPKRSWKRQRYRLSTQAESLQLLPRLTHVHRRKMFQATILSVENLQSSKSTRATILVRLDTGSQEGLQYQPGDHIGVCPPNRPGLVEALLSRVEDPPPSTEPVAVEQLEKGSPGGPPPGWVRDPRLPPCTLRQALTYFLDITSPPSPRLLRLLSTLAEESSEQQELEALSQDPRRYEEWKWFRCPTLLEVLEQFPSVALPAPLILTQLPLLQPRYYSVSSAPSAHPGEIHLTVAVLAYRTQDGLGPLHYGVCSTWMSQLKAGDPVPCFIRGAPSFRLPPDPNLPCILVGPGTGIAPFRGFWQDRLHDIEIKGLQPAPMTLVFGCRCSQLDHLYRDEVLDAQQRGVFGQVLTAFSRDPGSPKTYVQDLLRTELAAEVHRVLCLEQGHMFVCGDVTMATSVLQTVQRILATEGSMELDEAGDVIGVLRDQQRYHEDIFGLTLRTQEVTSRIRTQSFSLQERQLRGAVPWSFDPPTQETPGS
Description: In vitro studies with rat aortic rings were carried out to test the effect of N^6 -(hydrazinoiminomethyl)-L-lysine relative to other known inhibitors of the constitutive isoform of nitric oxide synthase. Aortic rings (2-3 mm) were isolated, suspended under a resting tension of 2.00 gm in 5 ml glass chambers containing Krebs-Henseleit solution gassed with 95% 02 and 5% CO2 at 37° C. as described previously for vascular rings from guinea pigs (O.A. Fasehun et al, (1990) J. Pharmacol. Exp. Ther. 255, 1348-1353). The aortic rings were then contracted by addition of 0.03 μM phenylephrine to the bathing solution, and the tension of the rings was measured. Acetylcholine, an agonist that stimulates the formation of nitric oxide by constitutive nitric oxide synthase in the vascular endothelium, was next added to a final concentration of 1 μM. The nitric oxide formed in response to acetylcholine causes the vascular smooth muscle of the aortic rings to relax, and the decrease in tension is measured. Inhibitors of nitric oxide synthase decrease the extent to which acetylcholine causes relaxation of the phenylephrine-contracted aortic rings. In the study, rings were contracted with phenylephrine, relaxed with acetylcholine, and then increasing doses of inhibitor were added to the bathing solution to overcome the effect of acetylcholine. The dose of inhibitor is denoted on the X-axis.

nitric oxide synthase = test: Efficacy on arterial blood pressure in endotoxin-treated anesthetized dog (Example IV); format: in vivo
Description: To test the efficacy of N^6 -(hydrazinoiminomethyl)-L-lysine, a 28 kg fasted dog was anesthetized with pentobarbital (25 mg/kg, i.v.), orotracheally intubated to allow ventilation with a Harvard pump, and instrumented to allow arterial blood pressure to be monitored via a central catheter. After a constant normal blood pressure had been observed for about 90 min., a solution containing 2 mg/kg body weight of endotoxin (E. coli lipopolysaccharide obtained from Sigma Chemical Co.) was given as an intravenous bolus injection. […] When the mean arterial blood pressure had declined to about 70 mm Hg, a bolus intravenous injection of 20 mg/kg of N^6 -(hydrazinoiminomethyl)-L-lysine monohydrochloride (denote HAA) was given. […] At that time, the dog was given a bolus intravenous injection of 400 mg/kg of L-arginine (denoted L-ARG), the substrate of nitric oxide synthase and a specific antagonist of nitric oxide synthase inhibitors competing for the L-arginine binding site.

[2] = target: T2, cytokine-induced nitric oxide synthase isozyme (Mus musculus, UniProt P29477); test: Nitrite formation by cytokine-induced cultured mouse brain endothelial cells (Example V); format: cell-based
T2 construct: endogenous in cells; host or cells: cultured mouse brain endothelial cells induced with gamma-interferon and tumor necrosis factor
Description: In vitro studies with cultured endothelial cells were carried out to test the efficacy of N^6 -(hydrazinoiminomethyl)-L-lysine as an inhibitor of the cytokine-induced nitric oxide synthase isozyme relative to established inhibitors. Cultured mouse brain endothelial cells were grown for 18 hrs. in the presence of 1000 units/ml of gamma-interferon and 5000 units/ml of tumor necrosis factor, conditions shown previously to cause enzyme induction (R. Kilbourn and P. Belloni (1990) in "Nitric Oxide from L-Arginine: A Bioregulatory System" (S. Moncada and E. A. Higgs, eds.) pp. 61-67, Elsevier Science Publishers, Amsterdam). For control cells the culture media contained 50% Dulbecco's Modified Eagle's Medium, 45% Ham's F12 Medium with 5% fetal calf serum. […] Nitric oxide formation was monitored by following the increase in the concentration of nitrite in the culture medium. Nitric oxide spontaneously oxidizes to nitrite under the incubator conditions.

[3] = Toxicity in awake dog, i.v. bolus plus infusion (Example II); format: in vivo
Description: To test the toxicity of N^6 -(hydrazinoiminomethyl)-L-lysine, a 30 kg awake dog was administered the hydrochloride salt of the drug at a dose of 20 mg/kg body weight as a single intravenous (i.v.) bolus. […] After 30 min., an additional dose of 20 mg/kg was given and an i.v. infusion of drug at a rate of 10 mg/kg body weight per hour was started. The infusion was continued for 5 hours. […] The spasms ended within 24 hours (48 hours after the experiment started), and the dog appeared normal and well in all respects.

[4] = design: species or system Swiss-Webster mice; conditions: mouse, in vivo, sc
Description: To test the long-term toxicity of N^6 -(hydrazinoiminomethyl)-L-lysine,0.209 ml of a 200 mM solution of the hydrochloride salt of the drug (48 mg/ml) was loaded into each of three Alzet Osmotic Pumps (Model 2001), and the pumps were implanted subcutaneously on the backs of three individual Swiss-Webster mice (wts. 30.7, 34.8 and 33.4 gms) under pentobarbital anesthesia. Each pump delivered the solution of drug at a rate of […] for 1 week.

[5] = system: inducible isoform of nitric oxide synthase; conditions: cited from earlier work
[6] = rat aortic rings, 0.03 μM phenylephrine, 1 μM acetylcholine, read-out: concentration needed to overcome 50% of the relaxation caused by acetylcholine (ED50)
[7] = ratio of ED 50% approx., inducible isoform

Compound: CNC(=N)NCCC[C@H](N)C(=O)O [NMMA, N^G -methyl-L-arginine]
- pIC50 [1, 6]: ~4.99

Compound: NN=C(N)NCCCCC(N)C(=O)O (racemic) [N^6 -(hydrazinoiminomethyl)-D,L-lysine, N^6 -(Hydrazinoiminomethyl)-D,L-lysine]
- blood pressure increase compared with L-form (nitric oxide synthase; as Example IV, twice the dosage of the L-form): substantially equal results
- inhibition of nitrite formation by induced endothelial cells compared with L-form ([2]; as Example V, twice the concentration of the L-form): substantially equal results

Compound: N=C(N)NCCC[C@H](N)C(=O)O [L-ARG, L-arginine, reference compound]
- blood pressure after reversal by substrate (nitric oxide synthase; endotoxin dog treated with HAA, then 400 mg/kg i.v. bolus): dropped precipitously to a level characteristic of septic (endotoxic) shock

Compound: NN=C(N)NCCCC[C@H](N)C(=O)O [HAA, N^6 -(hydrazinoiminomethyl)-L-lysine]
- late signs of toxicity ([3]; dog, in vivo): periodic isolated myoclonic muscle spasms
- time until muscle spasms ended ([3]; dog, in vivo): ≤ 24 h
- signs of toxicity ([3]; dog, in vivo, iv, 20 mg/kg): no signs of toxicity
- survival [4]: > 4 weeks
- increase of blood pressure (nitric oxide synthase; endotoxin 2 mg/kg dog, mean arterial pressure about 70 mm Hg, 20 mg/kg i.v. bolus, within a few minutes): about 30 mm Hg
- time blood pressure remained in physiologically acceptable range (nitric oxide synthase; endotoxin dog, after 20 mg/kg i.v. bolus): about 45 min
- pIC50 ([2]; mouse brain endothelial cells, 18 hrs with gamma-interferon 1000 units/ml and tumor necrosis factor 5000 units/ml, read-out: dose required for approximately 50% inhibition (ED 50% approx.) of nitrite formation): ~4.81
- potency relative to NAA [2, 7]: approximately 4 times
- potency relative to NMMA [2, 7]: approximately 8 times
- pIC50 [1, 6]: ~4.99

Compound: N=C(NCCC[C@H](N)C(=O)O)N[N+](=O)[O-] [NNA, N^G -nitro-L-arginine]
- pIC50 [1, 6]: ~5.82
- rank as inhibitor of the inducible isoform among NNA, NAA, NMMA, HAA [5]: least effective inhibitor of the inducible isoform

Compound: N/N=C(\N)NCCC[C@H](N)C(=O)O [NAA, N^G -amino-L-arginine, reference compound]
- toxicity at the same dose under similar circumstances ([3]; awake dog, same dose as N6-(hydrazinoiminomethyl)-L-lysine): major seizures
- pIC50 [2]: ~4.20
- pIC50 [1]: ~5.38
